Literature values as cited in US6369078B1, “Solenopsin derivatives and analogues as fire ant suppressants” (priority 1999, dated 2002).

Experiments:
fire ants = conditions: stomach insecticide combined with bait
[1] = tested on: blood and tissue- and fluid-feeding parasites
[2] = as much as 6000 units over a shorter time period

SMILES | effectiveness against fire ants (fire ants) | units equivalent to 250 units of the whole body extracts ([1]; synthetic version against whole body extract) | elimination of blood and tissue- and fluid-feeding parasites ([1]; synthetically produced, oral) | ill effects [2]
ClC1(Cl)C2(Cl)C3(Cl)C4(Cl)C(Cl)(Cl)C5(Cl)C3(Cl)C1(Cl)C5(Cl)C24Cl (stereo not shown) [Mirex] | more than 95% | – | – | –
CCCCCCCCCCC[C@H]1CCC[C@H](C)N1 (relative stereo) [Solenopsin A, trans-2-methyl 6-n-undecylpiperidine] | – | 1500 units | complete elimination | did not cause any ill effects
